From patent US10413583B2, “Synthetic substrates for enzymes that catalyze reactions of modified cysteines and related methods” (The University of Chicago, priority 2016, dated 2019)

How the values were obtained:
APT2 = molecular target: T1, APT2 (Homo sapiens, UniProt O95372); assay: In vitro kinetic assays and emission spectra of DPP-1, DPP-4, DPP-5 with APT2 (no detergent); type: biochemical
T1 construct: His-tag; made in house; host or cells: E. coli ROSETTA DE3
Experimental: (§1) 150 μL of 2 μM DPP-1, DPP4 or DPP-5 in HEPES (20 mM, pH=7.4, 150 mM NaCl) were added to a 96-well optical bottom plate (Nunc 265301, Fisher Scientific, Pittsburgh, Pa., United States of America) at room temperature. 150 μL of either HEPES buffer alone or HEPES buffer containing 100 nM APT1 or APT2 (purification using previous methods), was added using a multi-channel pipette, resulting in a final concentration of 1 μM DPP-1/DPP4/DPP-5 and 50 nM APT1 or APT2. Fluorescence intensities (λex 490/20 nm, λem 545/20 nm, Gain 80, read from bottom with height 4.5 mm, and sweep method) were measured at 15 s time intervals for 30 min at 37° C. Following the 30 min kinetic run, emission spectra were obtained (λex 480/20 nm, Aem515-700 nm, Gain 80, read from bottom with height 4.5 mm, and sweep method).

APT1 = molecular target: T2, APT1 (Homo sapiens, UniProt O75608); assay: In vitro kinetic assays and emission spectra of DPP-1, DPP-4, DPP-5 with APT1 (no detergent); type: biochemical
T2 construct: His-tag; made in house; host or cells: E. coli ROSETTA DE3
T2 sequence (O75608 whole entry): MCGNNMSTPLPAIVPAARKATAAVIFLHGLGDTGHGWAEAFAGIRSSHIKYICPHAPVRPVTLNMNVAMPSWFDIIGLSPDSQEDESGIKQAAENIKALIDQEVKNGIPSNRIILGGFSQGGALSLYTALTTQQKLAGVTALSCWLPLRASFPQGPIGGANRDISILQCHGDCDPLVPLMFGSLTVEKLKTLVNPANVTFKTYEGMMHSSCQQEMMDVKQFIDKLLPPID
Experimental: as §1

T1 sequence (O95372 whole entry): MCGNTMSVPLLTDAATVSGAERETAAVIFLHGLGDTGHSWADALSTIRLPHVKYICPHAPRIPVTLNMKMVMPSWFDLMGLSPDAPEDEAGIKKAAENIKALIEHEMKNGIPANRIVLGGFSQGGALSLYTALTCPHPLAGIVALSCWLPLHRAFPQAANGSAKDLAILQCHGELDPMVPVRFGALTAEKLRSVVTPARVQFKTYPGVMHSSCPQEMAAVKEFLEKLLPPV

SMILES: CCCCCCCCCCCCCCCC(=O)SC[C@@H](C(=O)NC)N(C)C(=O)Oc1ccc2c(c1)Oc1cc(N3CCN(C(=O)CCC(=O)O)CC3)ccc1C21OC(=O)c2ccccc21 (stereo partly shown) [DPP-5]
- enhancement in intensity of fluorescence signal (APT2; 1 μM probe, 50 nM APT2, 30 minutes, absence of detergents): 350 fold
- in vitro kinetics (APT2; APT2, absence of detergents): more rapid turn-on response
- enhancement in intensity of fluorescence signal (APT1; 1 μM probe, 50 nM APT1, 30 minutes, absence of detergents): 350 fold
- in vitro kinetics (APT1; APT1, absence of detergents): more rapid turn-on response
